Read-outs that look alike come from different tables or passages of the source.
Columns and labels:
[1] = test system: KHYG-1 NK cell-mediated lysis of K562 cells; assay: Inhibition of KHYG-1 NK cell-mediated lysis of K562 cells (51Cr release); type: cell-based; conditions: 4 h, K562 target cells, Effector:Target 2:1, 4 hours at 37° C.
Procedure: Inhibition of KHYG-1 NK Cell-Mediated Lysis of K562 Cells.
Test compounds were added to KHYG-1 cells at various concentrations up to 20 µM and incubated at RT for 20 minutes. 1×10^6 K562 target cells were labelled with 75 μCi ^51Cr in 200 μl RPMI for 90 mins at 37° C., cells were washed as described above and resuspended in 5 ml RPMI+0.1% BSA. 50 μl of ^51Cr labelled K562 leukemia target cells were added to each well of the KHYG-1 plate (Effector:Target 2:1) and incubated at 37° C. for 4 hours. ^51Cr release was assayed using a Skatron Harvesting Press and radioactivity estimated on a Wallac Wizard 1470 Automatic Gamma counter (Turku, Finland). The percentage of specific cytotoxicity was calculated by the formula: […]

recombinant perforin = recombinant perforin (UniProt P10820); type: cell-based
recombinant perforin, sequence (P10820 whole entry): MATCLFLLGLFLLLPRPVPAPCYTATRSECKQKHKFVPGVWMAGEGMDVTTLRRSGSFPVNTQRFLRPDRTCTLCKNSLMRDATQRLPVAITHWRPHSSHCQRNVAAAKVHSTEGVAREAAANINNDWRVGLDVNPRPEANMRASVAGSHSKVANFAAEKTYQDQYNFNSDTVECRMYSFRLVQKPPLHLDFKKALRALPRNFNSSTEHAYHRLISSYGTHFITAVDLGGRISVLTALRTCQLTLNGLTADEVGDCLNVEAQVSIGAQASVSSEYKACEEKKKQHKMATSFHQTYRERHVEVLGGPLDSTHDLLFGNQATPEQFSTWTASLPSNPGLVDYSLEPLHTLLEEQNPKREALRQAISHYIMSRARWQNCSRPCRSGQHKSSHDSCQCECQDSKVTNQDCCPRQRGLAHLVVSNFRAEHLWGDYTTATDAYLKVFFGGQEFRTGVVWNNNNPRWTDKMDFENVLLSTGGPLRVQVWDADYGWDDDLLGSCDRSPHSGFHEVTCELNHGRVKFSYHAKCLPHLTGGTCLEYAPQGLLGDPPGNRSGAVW
Procedure: Inhibition of perforin-mediated lysis of Jurkat cells.
The ability of the compounds to inhibit the lysis of nucleated (Jurkat T lymphoma) cells in the presence of 0.1% BSA, as measured by release of ^51Cr was measured. Jurkat target cells were labelled by incubation in medium with 100 μCi ^51Cr for one hour. The cells were then washed three times to remove unincorporated isotope and re-suspended at 1×10^5 cells per mL in RPMI buffer supplemented with 0.1% BSA. […] Each data point was performed in triplicate and an IC50 was calculated from the range of concentrations described to above.

[2] = read-out: Jurkat IC50; lysis of Jurkat T lymphoma cells by recombinant perforin, 0.1% BSA, 30 min pre-incubation, 4 hours at 37° C.
[3] = lysis of Jurkat T lymphoma cells by recombinant perforin, 0.1% BSA, 30 min pre-incubation, 4 hours at 37° C.; read-out: Jurkat IC50

Row | SMILES | melting point [°C] | inhibition at 20 µM [1] [%] | IC50 (recombinant perforin; [2]) [µM] | IC50 (recombinant perforin; [3]) [µM]
1 | CN1Cc2cc(-c3ccc(-c4cncc(NS(=O)(=O)c5ccc(C(C)(C)C)cc5)c4)s3)ccc2C1=O [Compound 3, 4-(tert-Butyl)-N-(5-(5-(2-methyl-1-oxoisoindolin-5-yl)thiophen-2-yl)pyridin-3-yl)benzenesulfonamide] | 285 to 288 |  |  | 
2 | CN1Cc2cc(-c3ccc(-c4cncc(NS(=O)(=O)c5cccc(F)c5)c4)s3)ccc2C1=O [Compound 5, 3-Fluoro-N-(5-(5-(2-methyl-1-oxoisoindolin-5-yl)thiophen-2-yl)pyridin-3-yl)benzene-sulfonamide] | 292 to 294 |  |  | 
3 | CN1Cc2cc(-c3ccc(-c4cncc(NS(=O)(=O)c5ccc(F)c(F)c5)c4)s3)ccc2C1=O [Compound 7, 3,4-Difluoro-N-(5-(5-(2-methyl-1-oxoisoindolin-5-yl)thiophen-2-yl)pyridin-3-yl)benzene-sulfonamide] | 282 to 285 |  |  | 
4 | CN1Cc2cc(-c3ccc(-c4cncc(NS(=O)(=O)c5ccc(OC(F)(F)F)cc5)c4)s3)ccc2C1=O [Compound 24, N-(5-(5-(2-Methyl-1-oxoisoindolin-5-yl)thiophen-2-yl)pyridin-3-yl)-4-(trifluoromethoxy)benzenesulfonamide] | 293 to 296 |  |  | 
5 | CN1Cc2cc(-c3ccc(-c4cncc(NS(=O)(=O)c5ccc(C(F)(F)F)cc5Cl)c4)s3)ccc2C1=O [Compound 26, 2-Chloro-N-(5-(5-(2-methyl-1-oxoisoindolin-5-yl)thiophen-2-yl)pyridin-3-yl)-4-(trifluoromethyl)benzenesulfonamide] | 292 to 295 |  |  | 
6 | CN1Cc2cc(-c3ccc(-c4cncc(NS(=O)(=O)c5ccc(Cl)nc5)c4)s3)ccc2C1=O [Compound 33, 6-Chloro-N-(5-(5-(2-methyl-1-oxoisoindolin-5-yl)thiophen-2-yl)pyridin-3-yl)pyridine-3-sulfonamide] | 260 to 265 |  |  | 
7 | COc1ncc(-c2ccc(-c3ccc4c(c3)CN(C)C4=O)s2)cc1NS(=O)(=O)c1ccccc1 [Compound 36, N-(2-Methoxy-5-(5-(2-methyl-1-oxoisoindolin-5-yl)thiophen-2-yl)pyridin-3-yl)benzenesulphonamide] | 280 to 283 |  |  | 
8 | O=C1Cc2cc(-c3ccc(-c4cncc(NS(=O)(=O)c5ccc(F)cc5F)c4)s3)ccc2N1 [Compound 67, 2,4-Difluoro-N-(5-(5-(2-oxoindolin-5-yl)thiophen-2-yl)pyridin-3-yl)benzenesulfonamides] |  | 42.8 ± 10 | 5.04 | 
9 | Cc1cc(F)ccc1S(=O)(=O)Nc1cncc(-c2ccc(-c3ccc4c(c3)CN(C)C4=O)s2)c1 [Compound 70, 4-Fluoro-2-methyl-N-(5-(5-(2-methyl-1-oxoisoindolin-5-yl)thiophen-2-yl)pyridin-3-yl)benzenesulphonamide] |  | 17.6 ± 13 |  | 5.53
10 | Cn1ccc2cc(-c3ccc(-c4cncc(NS(=O)(=O)c5ccc(F)cc5F)c4)s3)ccc21 [Compound 72, 2,4-Difluoro-N-(5-(5-(1-methyl-1H-indol-5-yl)thiophen-2-yl)pyridin-3-yl)benzenesulfonamide] |  | 19 ± 17 | 8.63 | 
11 | CN1Cc2cc(-c3ccc(-c4cncc(NS(=O)(=O)c5ccc(C(=O)O)cc5)c4)s3)ccc2C1=O [Compound 73, 4-(N-(5-(5-(2-Methyl-1-oxoisoindolin-5-yl)thiophen-2-yl)pyridin-3-yl)sulfamoyl)benzoic acid] |  | 56.9 ± 29.6 |  | 0.75
12 | CN1Cc2cc(-c3ccc(-c4cncc(NS(=O)(=O)c5ccc(I)cc5)c4)s3)ccc2C1=O [Compound 74, 4-Iodo-N-(5-(5-(2-methyl-1-oxoisoindolin-5-yl)thiophen-2-yl)pyridin-3-yl)benzenesulfonamides] |  | 15.6 ± 5 |  | 5
13 | CN1Cc2cc(-c3ccc(-c4cncc(NS(=O)(=O)c5ccc(Br)cc5Br)c4)s3)ccc2C1=O [Compound 75, 2,4-Dibromo-N-(5-(5-(2-methyl-1-oxoisoindolin-5-yl)thiophen-2-yl)pyridin-3-yl)benzenesulfonamides] |  | 49.2 ± 15 |  | 2.52
14 | CN1Cc2cc(-c3ccc(-c4cncc(NS(=O)(=O)c5ccc(-c6ccno6)s5)c4)s3)ccc2C1=O [Compound 76, 5-(Isoxazol-5-yl)-N-(5-(5-(2-methyl-1-oxoisoindolin-5-yl)thiophen-2-yl)pyridin-3-yl)thiophene-2-sulfonamide] |  | 47.5 ± 10 |  | 7.1
15 | CN1Cc2cc(-c3ccc(-c4cncc(NS(=O)(=O)c5ccc(-c6cnco6)cc5)c4)s3)ccc2C1=O [Compound 77, N-(5-(5-(2-Methyl-1-oxoisoindolin-5-yl)thiophen-2-yl)pyridin-3-yl)-4-(oxazol-5-yl)benzenesulfonamides] |  | 38.3 ± 5 |  | 3.05
16 | CN1Cc2cc(-c3ccc(-c4cncc(NS(=O)(=O)c5ccccc5C(F)(F)F)c4)s3)ccc2C1=O [Compound 78, N-(5-(5-(2-Methyl-1-oxoisoindolin-5-yl)thiophen-2-yl)pyridin-3-yl)-2-(trifluoromethyl)benzenesulfonamide] |  | 56 ± 9 |  | 1.45
17 | CN1Cc2cc(-c3ccc(-c4cncc(NS(=O)(=O)c5cccc(C(F)(F)F)c5)c4)s3)ccc2C1=O [Compound 81, N-(5-(5-(2-Methyl-1-oxoisoindolin-5-yl)thiophen-2-yl)pyridin-3-yl)-3-(trifluoromethyl)benzenesulfonamides] |  | 37.8 ± 19 |  | 0.91
18 | CN1Cc2cc(-c3ccc(-c4cncc(NS(=O)(=O)c5ccccc5S(C)(=O)=O)c4)s3)ccc2C1=O [Compound 82, N-(5-(5-(2-Methyl-1-oxoisoindolin-5-yl)thiophen-2-yl)pyridin-3-yl)-2-(methylsulfonyl)benzenesulfonamides] |  | 30.5 ± 11 |  | 6.8
19 | COC(=O)c1ccc(S(=O)(=O)Nc2cncc(-c3ccc(-c4ccc5c(c4)CN(C)C5=O)s3)c2)cc1 [Compound 84, Methyl 4-(N-(5-(5-(2-methyl-1-oxoisoindolin-5-yl)thiophen-2-yl)pyridin-3-yl)sulfamoyl)benzoate] |  | 8.84 |  | 8.16
20 | COC(=O)c1ccccc1S(=O)(=O)Nc1cncc(-c2ccc(-c3ccc4c(c3)CN(C)C4=O)s2)c1 [Compound 86, Methyl 2-(N-(5-(5-(2-methyl-1-oxoisoindolin-5-yl)thiophen-2-yl)pyridin-3-yl)sulfamoyl)benzoate] |  | 2.3 ± 3 |  | 2.9
21 | CN1Cc2cc(-c3ccc(-c4cncc(NS(=O)(=O)c5ccc(Br)s5)c4)s3)ccc2C1=O [Compound 87, 5-Bromo-N-(5-(5-(2-methyl-1-oxoisoindolin-5-yl)thiophen-2-yl)pyridin-3-yl)thiophene-2-sulphonamide] |  | 31.6 ± 6 | 1.8 | 
22 | CN1Cc2cc(-c3ncc(-c4cncc(NS(=O)(=O)c5ccc(F)cc5F)c4)s3)ccc2C1=O [Compound 88, 2,4-Difluoro-N-(5-(2-(2-methyl-1-oxoisoindolin-5-yl)thiazol-5-yl)pyridin-3-yl)benzenesulphonamide] |  | 40.5 ± 23 | 18.8 | 
23 | CN1Cc2cc(-c3ccc(-c4cncc(NS(=O)(=O)c5ccc(F)c(C(F)(F)F)c5)c4)s3)ccc2C1=O [Compound 89, 4-Fluoro-N-(5-(5-(2-methyl-1-oxoisoindolin-5-yl)thiophen-2-yl)pyridin-3-yl)-3-(trifluoromethyl)benzenesulphonamide] |  | 59.9 ± 13 |  | 3.75
